Laboratory results from patent US11718593B2, “2,5-aryl-thiazole analogs for the treatment of neurodegenerative diseases” (Southern Research Institute, priority 2018, dated 2023).
≈ marks a conversion by molar mass, not a printed value. Like-named read-outs stand apart in the source and are kept apart here. Each block holds one compound with its values, some of them ahead of it.

How the values were obtained:
[1] = tested on: NF-κB; assay: High throughput assay for NF-κB reporter activity (luciferase, stably transfected SH-SY5Y cells); type: cell-based, human; conditions: for maximal fold induction: 24 h, read-out: Emax
Protocol: SH-SY5Y human neuroblastoma cell line was obtained from the American Tissue Culture collection (ATCC). A commercially available expression vector containing the NF-kB promoter enhancer region driving the firefly luciferase gene expression and a second plasmid containing the gene conferring resistance to blasticidin were used in a dual transfection approach to obtain a stable cell line. SH-SY5Y cells stably transfected with pNF-κB-luc/pEF6 were plated at 8,000 per well in a volume of 40 μl DMEM in either Corning white opaque, 384-well plates (Cat. No. 3570, Corning, Inc., Corning, N.Y.) or Corning black clear bottom, 384-well plates (Cat. No. 3712, Corning, Inc., Corning, N.Y.) and treated with test compounds for 24 hr at 37° C. Luciferase activity was measured as a reporter of NF-kB activation using the Bright-Glo Luciferase assay kit (Cat. No. E2620, Promega, Madison, Wis.) according to the manufacturer's instructions. Cell viability was measured using the CellTiter-Glo Luminescent Cell Viability assay kit (Cat. No. G7572, Promega, Madison, Wis.) according to the manufacturer's instructions. Briefly, cells were equilibrated at room temperature for 30 min prior to the addition of Bright-Glo to the white opaque plates or CellTiter-Glo to the black clear bottom plates. A volume of assay buffer equal to the volume of cell media was added to each well and incubated for five min to allow complete cell lysis. All procedures were performed in the dark. Luminescence was measured by the Synergy4 Multi-detection microplate reader (BioTek, Winooski, Vt.) within 15 min of lysis.

[2] = Bioavailability / PK study (IV and PO); type: in vivo, mouse; conditions: for oral bioavailability: I.V./P.O., 1 and 5 mg/kg; for half-life: read-out: plasma half-life (t1/2)
Protocol: The experiments will involve the administration of compounds to 5-6 week old CD1 male mice. Mice are dosed by either a 1 mg/kg IV bolus or 5 mg/kg oral gavage. Blood samples are collected by cardiac puncture at 0, 0.25, 0.5, 1, 2, 4, 6, 8, 12, and 24 hrs. There will be three mice per time point. Plasma concentration over time will be determined by LC/MS from which the standard PK parameters of clearance, volume of distribution, t1/2 and % F can be derived using WinNoLin software (Pharsight Inc.). This will require a total of 60 mice per compound. Plasma will be analyzed by reverse phase chromatography with MS/MS detection operating in the positive ion mode using multiple reaction monitoring using an internal standard and Applied Biosystems Analyst 1.4 software. Peak time (when maximum plasma drug concentration occurs), peak drug level [approximate maximum concentrations of drug in plasma (Cmax)] and tin for drug elimination will be estimated for each tested compound. Bioavailability (F) will be calculated from the ratio of AUCPO/AUCIV and expressed as a percentage. To determine levels in brain, six additional mice will be dosed with 1 mg/kg I.V. and sacrificed at 0.25 and 1 hr. Brain and spinal cord samples will be collected at these two time points, quick frozen in an ice box and kept at −75±15° C. All samples will be weighed and homogenized with phosphate buffered saline (PBS) by brain weight (g) to PBS volume (mL) ratio 1:3 before analysis. The actual concentration is the detected value multiplied by the dilution factor.

[3] = tested on: MDR/MDCK cells; assay: Permeability in MDR/MDCK cells; type: in vitro ADME, Canine
Excerpt: (§1) A standard panel of in vitro ADME assays will be utilized to assess drug-like properties of compounds and to inform subsequent in vivo PK studies. These assays include: (a) Permeability: MDCK (Madin Darby Canine Kidney) cells transfected with the MDR1 gene encoding for the multi-drug resistant transporter (Pgp) will be utilized to determine a compound's ability to permeate the membrane in apical to basolateral (A-B) and basolateral to apical (B-A) directions. The derived apparent permeability coefficient (Papp) provides an estimate of passive permeability; a ratio of Papp in the B-A/A-B direction gives an estimate of transporter efflux; (b) Solubility: Kinetic solubility is an important parameter for accurate determinations of the dose response. This is estimated using the shake flask method with a μSol Explorer (PION, Billerica, Mass.) at pH 7.4. Compounds are added as a DMSO solution to buffer. The average of two determinations at pH 7.4 will be reported. Solubility at pH 7.4 is relevant for in vitro assays; (c) Metabolic Stability: The potential for a high metabolic clearance compound is estimated using a liver microsome assay. […] The disappearance of the parent molecule is measured by liquid chromatography/mass spectroscopy (LC/MS) detection. […]

[4] = Solubility; type: physicochemical; conditions: buffer, pH 7.4, aqueous buffer, kinetic from dmso stock
Excerpt: as §1

[5] = tested on: SOD2; assay: SOD2 mRNA expression by quantitative RT-PCR in SH-SY5Y neuroblastoma cells; type: cell-based; conditions: human SH-SY5Y, 1 μM, 6 h (FIG. 1A)
[6] = tested on: SOD1 G93A transgenic mouse; assay: Efficacy in the SOD1 G93A transgenic mouse model of ALS; type: in vivo; conditions: for progression to a score of 4: 25 mg/kg I.P. daily from day 96, 4-point severity score; for survival: SOD1 G93A males, 25 mg/kg I.P. daily from day 96
Protocol: Briefly, Congenic SOD1-G93A mice were dosed with up to 50 mg/kg of both compounds (IP) to evaluate any toxicity issues prior to initiating the efficacy study. Also, mice administered 20 mg of each compound had high plasma and brain levels at 30 minutes. Next, individually genotyped SOD1-G93A mice (Prize4life-Jackson Labs) were treated with each compound (25 mg/kg, IP) at disease onset (day 96). The treatment extended survival, reduced weight loss and improved the neurologic symptoms. […] Data document a 66% and an 81% lifespan extension for the compounds, respectively, at 50% survival in male mice. […] The average weight within the groups before the treatment was similar.
While compounds which increase SOD2 expression and activity have potential utility in a number of neurodegenerative diseases involving ROS overproduction, it was decided to test these two compounds in a mouse model of ALS for a variety of reasons, including the evidence for oxidative stress in ALS (described above), the ability of these compounds to induce SOD2 in a motor neuron-like mouse cell line (NSC-34; FIG. 1B), and the availability of a mouse model with dysfunction in SOD1 (human SOD1 G93A transgenic mouse; Jackson Laboratory). The pilot experiment involved treating six wildtype and six SOD1 G93A transgenic males on the C57BL/6 background with 25 mg/kg compound no. 1 and compound no. 2 I.P. daily, beginning around disease onset (day 96; FIG. 2A and FIG. 2B). Mouse survival and behavioral phenotype were observed based on guidelines from “Working with ALS mice: JAX handbook,” using a 4-point severity score (FIG. 2C).
Referring to FIG. 2A and FIG. 2B, SOD1 G93A mice received daily IP injections of saline (control) or compounds (25 mg/kg) starting on day 96.

[7] = tested on: SOD2; assay: SOD2 mRNA expression in vitro (FIG. 5); type: cell-based; conditions: FIG. 1A-D
Excerpt: While a number of new compounds derived from Ataluren and compound no. […] 1 and no. 2. […] Whether these and other compounds are capable of inducing SOD2 mRNA and protein activity in vitro and in vivo, in addition to their ability to protect neurons from hydrogen peroxide or glutamate-induced cell death (as in Carri et al. (2015) Frontiers in cellular neuroscience 9:41) and dysfunction/cell death in the SOD1 G93A transgenic mouse model will also be evaluated.

[8] = tested on: glutamate-induced toxicity in primary cultures; assay: Neuroprotection in vitro; type: cell-based
[9] = tested on: SOD2; assay: SOD2 mRNA expression by quantitative RT-PCR in NSC-34 neuroblastoma cells; type: cell-based; conditions: mouse NSC-34, 1 μM, 24 h (FIG. 1B)
[10] = Plasma and brain levels in SOD1 G93A mice; type: in vivo, mouse; conditions: 50 mg/kg I.P., within 30 minutes
Protocol: Before the studies above were initiated, congenic SOD1 G93A mice were dosed with 50 mg/kg of compound no. 1 and compound no. 2 via I.P. injection to rule out any toxicity issues prior to initiating the efficacy study (FIG. 2A-C).

[11] = tested on: inhibitory κB; assay: Inhibitory κB expression levels; type: cell-based
[12] = tested on: SOD2; assay: SOD2 protein expression and SOD activity in primary rat cortical cultures; type: cell-based; conditions: for SOD2 protein expression: primary rat cortical cultures (FIG. 1C); for SOD activity: primary rat cortical cultures (FIG. 1D)
Excerpt: N=3-6/group, mean+/−SEM, *p<0.05, **p<0.01, 2-way ANOVA, post-hoc t-test.

[13] = Homo sapiens, SH-SY5Y, Table 2, unit not given (μM for nos. 3 and 20), read-out: EC50
[14] = Homo sapiens, SH-SY5Y, read-out: EC50
[15] = Homo sapiens, SH-SY5Y, Table 2, no unit printed (text: fold)
[16] = Table 2, unit not given (μM for nos. 3 and 20)

- Cmax ([2]; male, CD1, mouse, plasma, oral, 5 mg/kg dose): 100 ng/mL
- bioavailability ([2]; male, CD1, mouse, plasma, 1 mg/Kg IV and 5 mg/Kg po, read-out: orally bioavailable): 26%
- efflux [3]: no efflux was observed
- permeability [3]: highly permeable
- solubility [4]: 80 µM (≈ 25.1 µg/mL)
- EC50 [1, 13]: 0.84 µM
- EC50 [1, 14]: ~1 µM
Compound: O=C(O)c1cccc(-c2csc(Nc3ccccc3F)n2)c1 [Compound 3, 3-(2-((2-Fluorophenyl)amino)thiazol-4-yl)benzoic acid]

- EC50 [1, 13]: 9.35 µM
Compound: Fc1ccccc1Nc1nc(-c2cccc(C(F)(F)F)c2)cs1 [Compound 16]
- maximal fold induction [1, 15]: 16

- EC50 [1, 16]: Inactive
Compound: O=C(NC1CC1)c1cccc(-c2csc(Nc3ccccc3F)n2)c1 [Compound 28]

- EC50 [1, 16]: Inactive
Compound: NC(=O)c1cccc(-c2csc(Nc3ccccc3F)n2)c1 [Compound 30]

- EC50 [1, 13]: > 10 µM
Compound: Fc1ccccc1Nc1nc(-c2cccc(Cl)c2)cs1 [Compound 17]
- maximal fold induction [1, 15]: 14.5

- EC50 [1, 16]: Inactive
Compound: Cc1noc(-c2cccc(-c3csc(Nc4ccccc4F)n3)c2)n1 [Compound 31]

- EC50 [1, 14]: 1.5 µM
Compound: O=C(O)c1cccc(-c2noc(-c3ccccc3F)n2)c1 [Ataluren, reference compound]
- induction [1]: 9-10 fold

- EC50 [1, 13]: > 10 µM
Compound: CC(C)(O)c1cccc(-c2csc(Nc3ccccc3F)n2)c1 [Compound 21]
- maximal fold induction [1, 15]: 18.9

Continued, compound first:

Compound: N-(4-(2-((2-Fluorophenyl)amino)thiazol-4-yl)benzyl)acetamide [Compound 20]
- Emax [1]: > 20 fold
- Emax ([1]; Table 2, no unit printed (text: fold)): 27.58
- EC50 ([1]; Table 2, unit not given (μM for nos. 3 and 20), read-out: EC50): 3.75 µM
- EC50 ([1]; read-out: EC50): 4 µM

Compound: N#Cc1cccc(-c2csc(Nc3ccccc3F)n2)c1 [Compound 25]
- EC50 [1, 13]: > 10 µM

Compound: N#Cc1ccc(-c2csc(Nc3ccccc3F)n2)cc1 [Compound 27]
- EC50 [1, 13]: > 10 µM

Compound: Cc1cccnc1Nc1nc(-c2ccccn2)cs1 [Compound 2, N-(3-Methylpyridin-2-yl)-4-(pyridin-2-yl)thiazol-2-amine]
- SOD2 mRNA expression [5]: induce SOD2
- progression to a score of 4 [6]: delayed
- survival [6]: significantly prolonged
- SOD2 mRNA expression increase [7]: 2 fold
- neuroprotection in vitro [8]: neuroprotective in vitro
- SOD2 mRNA expression [9]: induce SOD2
- oral bioavailability [2]: lack of oral bioavailability
- half-life ([2]; male, CD1, mouse, plasma): < 5 min
- plasma and brain levels [10]: substantial plasma and brain levels
- inhibitory κB expression levels [11]: do not effect inhibitory κB expression levels
- SOD2 protein expression [12]: induce SOD2
- SOD activity [12]: increase
- maximal fold induction [1, 15]: 40
- EC50 [1, 13]: 0.21 µM

Compound: Fc1ccccc1Nc1nc(-c2ccc(Cl)c(Cl)c2)cs1 [Compound 29]
- EC50 [1, 13]: > 10 µM

Compound: Fc1ccc(-c2csc(Nc3ccccc3F)n2)cc1 [Compound 43]
- EC50 [1, 16]: Inactive

Compound: Fc1ccc(-c2csc(Nc3ccccc3F)n2)cc1F [Compound 19]
- maximal fold induction [1, 15]: 18.5
- EC50 [1, 13]: > 10 µM

Compound: Fc1ccccc1Nc1nc(-c2ccc(C(F)(F)F)cc2)cs1 [Compound 26]
- EC50 [1, 13]: > 10 µM

Compound: Fc1ccccc1Nc1nc(-c2ccc(OCC(F)(F)F)cc2)cs1 [Compound 24]
- EC50 [1, 13]: > 10 µM

Compound: O=C(/C=C\Nc1ccccc1Br)c1ccc2c(c1)OCO2 [Compound 1, (Z)-1-(Benzo[d][1,3]dioxol-5-yl)-3-((2-bromophenyl)amino)Prop-2-en-1-one]
- SOD2 mRNA expression [5]: induce SOD2
- progression to a score of 4 [6]: delayed
- survival [6]: significantly prolonged
- SOD2 mRNA expression increase [7]: 2 fold
- neuroprotection in vitro [8]: neuroprotective in vitro
- SOD2 mRNA expression [9]: induce SOD2
- oral bioavailability [2]: lack of oral bioavailability
- half-life ([2]; male, CD1, mouse, plasma): < 5 min
- plasma and brain levels [10]: substantial plasma and brain levels
- inhibitory κB expression levels [11]: do not effect inhibitory κB expression levels
- SOD2 protein expression [12]: induce SOD2
- SOD activity [12]: increase
- maximal fold induction [1, 15]: 26
- EC50 [1, 13]: 0.5 µM
